# According to US9328138B2 (priority 2011, dated 2016):
# Where a name gives a salt, the structure may show the parent alone.
# Columns and labels:
# [1] = molecular target: T1, HCV genotype 1b (BK) NS3 modified enzyme with a R155K mutation (Hepatitis C virus genotype 1b, UniProt P26663, R1181K); experiment: HCV NS3 protease time-resolved fluorescence (TRF) assay, genotype 1b R155K; format: biochemical; details: Ki 1b R155K
# T1 construct: HCV genotype 1b (BK) NS3 modified enzyme
# Outline: (§1)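 Assay buffer: 50 mM HEPES pH 7.5, 150 mM NaCl, 0.1% PEG 8000, 0.15% Triton X-100. Ten-minute enzyme–inhibitor preincubation; substrate at 25 nM final; 6 h reaction, room temperature; signal/background set at 5-20 by enzyme amount.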
# [2] = molecular target: HCV NS3 protease genotype 3a (3A-1) (Hepatitis C virus genotype 3a, UniProt Q81258); experiment: HCV NS3 protease time-resolved fluorescence (TRF) assay, genotype 3a; format: biochemical; details: Ki 3a
# Outline: as §1
# [3] = first of two values printed in the cell (not explained)
# [4] = second of two values printed in the cell (not explained)
SMILES,"Ki [1, 3]","Ki [1, 4]",Ki [2]
"C=C[C@@H]1C[C@]1(NC(=O)[C@@H]1C[C@@H]2CN1C(=O)[C@H](C1CCCCC1)NC(=O)O[C@@H]1C[C@H]1CCCCCc1c(nc3ccccc3c1OC1CCOCC1)O2)C(=O)NS(=O)(=O)C1(C)CC1 [Example 253, (1aR,5S,8S,10R,22aR)-5-cyclohexyl-N-[(1R,2S)-2-ethenyl-1-{[(1-methylcyclopropyl)sulfonyl]carbamoyl}cyclopropyl]-3,6-dioxo-17-(tetrahydro-2H-pyran-4-yloxy)-1,1a,3,4,5,6,9,10,18,19,20,21,22,22a-tetradecahydro-8H-7,10-methanocyclopropa[18,19][1,10,3,6]dioxadiazacyclononadecino[11,12-b]quinoline-8-carboxamide]",0.026 nM,0.265 nM,11 nM
"C=C[C@@H]1C[C@]1(NC(=O)[C@@H]1C[C@@H]2CN1C(=O)[C@H](C(C)(C)C)NC(=O)O[C@@H]1C[C@H]1CCCCCc1c(nc3ccccc3c1OC1C3COCC1CN(CC1CC1)C3)O2)C(=O)NS(=O)(=O)C1(C)CC1 (stereo partly drawn) [Example 256, 9-{[(1aR,5S,8S,10R,22aR)-5-tert-butyl-8-{[(1R,2S)-2-ethenyl-1-{[(1-methylcyclopropyl)sulfonyl]carbamoyl}cyclopropyl]carbamoyl}-3,6-dioxo-1,1a,3,4,5,6,9,10,18,19,20,21,22,22a-tetradecahydro-8H-7,10-methanocyclopropa[18,19][1,10,3,6]dioxadiazacyclononadecino[11,12-b]quinolin-17-yl]oxy}-7-(cyclopropylmethyl)-3-oxa-7-azoniabicyclo[3.3.1]nonane formate]",0.021 nM,0.122 nM,5.45 nM
"C=C[C@@H]1CC1(NC(=O)[C@@H]1C[C@@H]2CN1C(=O)[C@H](C(C)(C)C)NC(=O)O[C@@H]1C[C@H]1CCCCCc1c(nc3ccccc3c1OC1C3COCC1CN(CCOC)C3)O2)C(=O)NS(=O)(=O)C1(C)CC1 (stereo partly drawn) [Example 257, 9-{[(1aR,5S,8S,10R,22aR)-5-tert-butyl-8-{[(1R,2S)-2-ethenyl-1-{[1-methylcyclopropyl)sulfonyl]carbamoyl}cyclopropyl]carbamoyl}-3,6-dioxo-1,1a,3,4,5,6,9,10,18,19,20,21,22,22a-tetradecahydro-8H-7,10-methanocyclopropa[18,19][1,10,3,6]dioxadiazacyclononadecino[11,12-b]quinolin-17-yl]oxy}-7-(2-methoxyethyl)-3-oxa-7-azoniabicyclo[3.3.1]nonane formate]",0.032 nM,0.23 nM,3.9 nM
"C=C[C@@H]1C[C@]1(NC(=O)[C@@H]1C[C@@H]2CN1C(=O)[C@H](C(C)(C)C)NC(=O)O[C@@H]1C[C@H]1CCCCCc1c(nc3ccccc3c1OC1C3COCC1CN(CC)C3)O2)C(=O)NS(=O)(=O)C1(C)CC1 (stereo partly drawn) [Example 260, (1aR,5S,8S,10R,22aR)-5-tert-butyl-N-[(1R,2S)-2-ethenyl-1-{[(1-methylcyclopropyl)sulfonyl]carbamoyl}cyclopropyl]-17-[(7-ethyl-3-oxa-7-azabicyclo[3.3.1]non-9-yl)oxy]-3,6-dioxo-1,1a,3,4,5,6,9,10,18,19,20,21,22,22a-tetradecahydro-8H-7,10-methanocyclopropa[18,19][1,10,3,6]dioxadiazacyclononadecino[11,12-b]quinoline-8-carboxamide]",0.019 nM,0.093 nM,2.4 nM
"C=C[C@@H]1C[C@]1(NC(=O)[C@@H]1C[C@@H]2CN1C(=O)[C@H](C(C)(C)C)NC(=O)O[C@@H]1C[C@H]1CCCCCc1c(nc3ccccc3c1OC1C3COCC1CN(CCOC)C3)O2)C(=O)NS(=O)(=O)C1(C)CC1 (stereo partly drawn) [Example 261, (1aR,5S,8S,10R,22aR)-5-tert-butyl-N-[(1R,2S)-2-ethenyl-1-{[(1-methylcyclopropyl)sulfonyl]carbamoyl}cyclopropyl]-17-{[7-(2-methoxyethyl)-3-oxa-7-azabicyclo[3.3.1]non-9-yl]oxy}-3,6-dioxo-1,1a,3,4,5,6,9,10,18,19,20,21,22,22a-tetradecahydro-8H-7,10-methanocyclopropa[18,19][1,10,3,6]dioxadiazacyclononadecino[11,12-b]quinoline-8-carboxamide]",0.026 nM,0.155 nM,3.45 nM
"C=C[C@@H]1CC1(NC(=O)[C@@H]1C[C@@H]2CN1C(=O)[C@H](C1CCCCC1)NC(=O)O[C@@H]1C[C@H]1CCCCCc1c(nc3ccccc3c1OC1CCN(CCOC(F)(F)F)CC1)O2)C(=O)NS(=O)(=O)C1(C)CC1 (stereo partly drawn) [Example 262, potassium {[(1R,2S)-1-({[(1aR,5S,8S,10R,22aR)-5-cyclohexyl-3,6-dioxo-17-({1-[2-(trifluoromethoxy)ethyl]piperidin-4-yl}oxy)-1,1a,3,4,5,6,9,10,18,19,20,21,22,22a-tetradecahydro-8H-7,10-methanocyclopropa[18,19][1,10,3,6]dioxadiazacyclononadecino[11,12-b]quinolin-8-yl]carbonyl}amino)-2-ethenylcyclopropyl]carbonyl}[(1-methylcyclopropyl)sulfonyl]azanide]",0.018 nM,0.12 nM,1.2 nM
"C=C[C@@H]1C[C@]1(NC(=O)[C@@H]1C[C@@H]2CN1C(=O)[C@H](C1(C)CCCCC1)NC(=O)O[C@@H]1C[C@H]1CCCCCc1c(nc3ccccc3c1OC1CC3CCC(C1)N3C)O2)C(=O)NS(=O)(=O)C1(C)CC1 (stereo partly drawn) [Example 263, (1aR,5S,8S,10R,22aR)—N-[(1R,2S)-2-ethenyl-1-{[(1-methylcyclopropyl)sulfonyl]carbamoyl}cyclopropyl]-17-[(8-methyl-8-azabicyclo[3.2.1]oct-3-yl)oxy]-5-(1-methylcyclohexyl)-3,6-dioxo-1,1a,3,4,5,6,9,10,18,19,20,21,22,22a-tetradecahydro-8H-7,10-methanocyclopropa[18,19][1,10,3,6]dioxadiazacyclononadecino[11,12-b]quinoline-8-carboxamide]",0.006 nM,0.011 nM,0.041 nM
"C=C[C@@H]1C[C@]1(NC(=O)[C@@H]1C[C@@H]2CN1C(=O)[C@H](C1CCCCC1)NC(=O)O[C@@H]1C[C@H]1CCCCCc1c(nc3ccccc3c1OCCCN1CCN(C(=O)OC(C)(C)C)CC1)O2)C(=O)NS(=O)(=O)C1(C)CC1 [Example 264, tert-butyl 4-(3-{[(1aR,5S,8S,10R,22aR)-5-cyclohexyl-8-{[(1R,2S)-2-ethenyl-1-{[(1-methylcyclopropyl)sulfonyl]carbamoyl}cyclopropyl]carbamoyl}-3,6-dioxo-1,1a,3,4,5,6,9,10,18,19,20,21,22,22a-tetradecahydro-8H-7,10-methanocyclopropa[18,19][1,10,3,6]dioxadiazacyclononadecino[11,12-b]quinolin-17-yl]oxy}propyl)piperazine-1-carboxylate]",0.037 nM,1.4 nM,7.7 nM
"C=C[C@@H]1CC1(NC(=O)[C@@H]1C[C@@H]2CN1C(=O)[C@H](C1CCCCC1)NC(=O)O[C@@H]1C[C@H]1CCCCCc1c(nc3ccccc3c1OCCCN1CCNCC1)O2)C(=O)NS(=O)(=O)C1(C)CC1 (stereo partly drawn) [Example 265, potassium ({(1R,2S)-1-[({(1aR,5S,8S,10R,22aR)-5-cyclohexyl-3,6-dioxo-17-[3-(piperazin-1-yl)propoxy]-1,1a,3,4,5,6,9,10,18,19,20,21,22,22a-tetradecahydro-8H-7,10-methanocyclopropa[18,19][1,10,3,6]dioxadiazacyclononadecino[11,12-b]quinolin-8-yl}carbonyl)amino]-2-ethenylcyclopropyl}carbonyl)[(1-methylcyclopropyl)sulfonyl]azanide]",0.016 nM,0.11 nM,1.15 nM
"C=C[C@@H]1C[C@]1(NC(=O)[C@@H]1C[C@@H]2CN1C(=O)[C@H](C1CCCCC1)NC(=O)O[C@@H]1C[C@H]1CCCCCc1c(nc3ccccc3c1CN1CCN(C)CC1)O2)C(=O)NS(=O)(=O)C1(C)CC1 [Example 266, potassium ({(1R,2S)-1-[({(1aR,5S,8S,10R,22aR)-5-cyclohexyl-17-[(4-methylpiperazin-1-yl)methyl]-3,6-dioxo-1,1a,3,4,5,6,9,10,18,19,20,21,22,22a-tetradecahydro-8H-7,10-methanocyclopropa[18,19][1,10,3,6]dioxadiazacyclononadecino[11,12-b]quinolin-8-yl}carbonyl)amino]-2-ethenylcyclopropyl}carbonyl)[(1-methylcyclopropyl)sulfonyl]azanide]",0.02 nM,0.044 nM,7.5 nM
"C=C[C@@H]1C[C@]1(NC(=O)[C@@H]1C[C@@H]2CN1C(=O)[C@H](C1(C)CCCCC1)NC(=O)O[C@@H]1C[C@H]1CCCCCc1c(nc3ccccc3c1OC1CCN(C(=O)OC(C)(C)C)CC1)O2)C(=O)NS(=O)(=O)C1(C)CC1 [Example 267, tert-butyl 4-{[(1aR,5S,8S,10R,22aR)-8-{[(1R,2S)-2-ethenyl-1-{[(1-methylcyclopropyl)sulfonyl]carbamoyl}cyclopropyl]carbamoyl}-5-(1-methylcyclohexyl)-3,6-dioxo-1,1a,3,4,5,6,9,10,18,19,20,21,22,22a-tetradecahydro-8H-7,10-methanocyclopropa[18,19][1,10,3,6]dioxadiazacyclononadecino[11,12-b]quinolin-17-yl]oxy}piperidine-1-carboxylate]",0.114 nM,4.6 nM,56 nM
"C=C[C@@H]1C[C@]1(NC(=O)[C@@H]1C[C@@H]2CN1C(=O)[C@H](C1(C)CCCCC1)NC(=O)O[C@@H]1C[C@H]1CCCCCc1c(nc3ccccc3c1OC1CCNCC1)O2)C(=O)NS(=O)(=O)C1(C)CC1 [Example 268, (1aR,5S,8S,10R,22aR)—N-[(1R,2S)-2-ethenyl-1-{[(1-methylcyclopropyl)sulfonyl]carbamoyl}cyclopropyl]-5-(1-methylcyclohexyl)-3,6-dioxo-17-(piperidin-4-yloxy)-1,1a,3,4,5,6,9,10,18,19,20,21,22,22a-tetradecahydro-8H-7,10-methanocyclopropa[18,19][1,10,3,6]dioxadiazacyclononadecino[11,12-b]quinoline-8-carboxamide]",0.012 nM,0.034 nM,0.2 nM
